# From patent publication US10676509B2, “Surface-immobilized antimicrobial peptoids” (Northwestern University, priority 2008, dated 2020)
# Like-named read-outs stand apart in the source and are kept apart here. Non-standard residues stand in square brackets, D forms with d. Residues, ends and D or L forms follow the SMILES beside them. N(1S-Me-propyl)Gly = CC[C@H](C)NCC(=O)O; Nspe = C[C@H](NCC(=O)O)c1ccccc1; Nlys = NCCCCNCC(=O)O
# Assays:
# [1] = system: B. subtilis; type: cell-based, Bacillus subtilis (ATCC 6633); details: 16 h
# Method: (§1) The polymers were initially tested to determine their antibacterial properties in the solution state. Antibacterial activities of the compounds were tested using the methods described above for both Gram-negative and Gram-positive bacterial strains.
# (§2) The minimum inhibitory concentration (MIC) for each polymer was determined according to Clinical Laboratory Standards Institute (CLSI) broth microdilution protocols (M7-A6). The procedure explained previously was followed (Chongsiriwatana et al., supra); briefly, serial dilutions of the polymers were prepared in Mueller-Hinton broth (MHB) in 96-well microtiter plates and bacterial inoculum in MHB was added to each well (˜5.0×10^4 CFU/well). Optical density was monitored at 590 nm for 16 h at 35° C.
# [2] = system: S. epidermidis; type: cell-based, Staphylococcus epidermidis RP62A (ATCC 12228); details: 16 h
# Method: as §1, §2
# [3] = system: E. coli; type: cell-based, Escherichia coli (ATCC 35218)
# Method: as §1, §2
# [4] = system: P. aeruginosa; type: cell-based, Pseudomonas aeruginosa (ATCC 700829); details: 16 h
# Method: as §1, §2
# [5] = system: E. coli, B. subtilis, S. epidermidis and P. aeruginosa; experiment: Antibacterial activity in solution (MIC), statements for all bacterial strains; type: cell-based; details: tested concentrations
# Method: as §1, §2
SMILES,MIC B. subtilis [1] [µM],MIC S. epidermidis [2] [µM],"MIC E. coli ([3]; solution, MHB, 16 h at 35° C.) [µM]",MIC P. aeruginosa [4] [µM],MIC E. coli ([3]; 16 h) [µM],Antibacterial activity in solution [5]
"C[C@@H](c1ccccc1)N(CC(N)=O)C(=O)CN(C(=O)CN(CCCCN)C(=O)CN(C(=O)CN(C(=O)CN(CCCCN)C(=O)[C@@H]1CCCN1C(=O)CN(C(=O)CN(CCCCN)C(=O)CN(C(=O)CN(C(=O)CNCCCCN)[C@@H](C)c1ccccc1)[C@@H](C)c1ccccc1)[C@@H](C)c1ccccc1)[C@@H](C)c1ccccc1)[C@@H](C)c1ccccc1)[C@@H](C)c1ccccc1 [AMP, H-NLys-Nspe-Nspe-NLys-Nspe-Pro-[NLys-Nspe-Nspe]2—NH2] (H-[Nlys][Nspe][Nspe][Nlys][Nspe]P[Nlys][Nspe][Nspe][Nlys][Nspe][Nspe]-NH2)",1.6,1.6,12.5,25,–,–
"CC[C@H](C)N(CC(N)=O)C(=O)CN(C(=O)CN(CCCCN)C(=O)CN(C(=O)CN(C(=O)CN(CCCCN)C(=O)CN(C(=O)CN(C(=O)CN(CCCCN)C(=O)CN(C(=O)CN(C(=O)CNCCCCN)[C@@H](C)CC)[C@@H](C)CC)[C@@H](C)CC)[C@@H](C)CC)[C@@H](C)CC)[C@@H](C)CC)[C@@H](C)CC [Peptoid C, H-[NLys-Nssb-Nssb]4-NH2, reference compound] (H-[Nlys][N(1S-Me-propyl)Gly][N(1S-Me-propyl)Gly][Nlys][N(1S-Me-propyl)Gly][N(1S-Me-propyl)Gly][Nlys][N(1S-Me-propyl)Gly][N(1S-Me-propyl)Gly][Nlys][N(1S-Me-propyl)Gly][N(1S-Me-propyl)Gly]-NH2)",>100,>100,–,>100,>100,not active at the tested concentrations
